# Where two headings read alike, the source gives them in different places.
# Columns and labels:
# [1] = test system: mice; design: method as in PMID 23291122, PMID 25226229, PMID 25090118; unit not given here; details: chimney test, cited from earlier work
# [2] = target: T1, CYP2B6 (Homo sapiens, UniProt P20813); test: Vivid CYP450 screening kit, CYP2B6; format: biochemical; details: 0.015 μg/mL, 20 min incubation, p > 0.05
# T1 construct: purchased Thermo Fisher Scientific
# T1 sequence (P20813 1-491): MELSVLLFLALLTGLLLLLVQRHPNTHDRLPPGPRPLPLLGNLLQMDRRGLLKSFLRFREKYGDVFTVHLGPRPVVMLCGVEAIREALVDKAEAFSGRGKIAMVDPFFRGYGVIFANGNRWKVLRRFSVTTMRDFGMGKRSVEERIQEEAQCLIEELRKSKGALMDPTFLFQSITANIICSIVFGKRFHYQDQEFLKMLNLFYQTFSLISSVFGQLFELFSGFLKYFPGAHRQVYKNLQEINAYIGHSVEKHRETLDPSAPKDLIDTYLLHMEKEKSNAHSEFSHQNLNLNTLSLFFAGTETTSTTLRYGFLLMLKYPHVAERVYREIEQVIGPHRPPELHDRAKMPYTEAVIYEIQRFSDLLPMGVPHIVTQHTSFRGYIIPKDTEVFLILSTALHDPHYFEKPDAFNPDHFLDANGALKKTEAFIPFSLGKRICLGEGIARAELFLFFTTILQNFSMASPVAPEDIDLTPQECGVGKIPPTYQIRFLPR
# Protocol: (§1) Possible inhibitory effect of TP-315 on the catalytic activity of human cytochrome CYP450 enzymes was tested using Vivid CYP450 screening kits (Thermo Fisher Scientific, Waltham, MA, USA) according to the manufacturer’s standard procedure (Vivid BOMCC substrate CYP2B6 blue, Vivid DBOMF substrate CYP3A4 green, Vivid DBOMF substrate CYP3A5 green, Vivid EOMCC substrate CYP2C19 blue, Vivid MOBFC substrate CYP2D6 cyan). The experiment was carried out in the endpoint test mode (reading after 20 min of incubation). The test compound was dissolved in DMSO (starting concentrations, 2.5× concentrated); to avoid the influence of the solvent on the enzyme activity, the results were compared with the solvent control. The influence of TP-315 on the activity of selected enzymes was tested at concentrations of 0.015, 0.1, 0.5, 1, 2.5, 5, and 10 μg/mL. The positive control compounds (inhibitors) were miconazole (for CYP2C19 and CYP2B6), quinidine (for CYP2D6), and ketoconazole (for CYP3A4 and CYP3A5). Inhibitor concentrations were selected according to the manufacturer’s recommendations to achieve ≥90% inhibition. All inhibitors were obtained from Sigma-Aldrich (St. Louis, MO, USA). The BioTek Synergy H1 reader (BioTek Instruments, Inc., USA) was used to read the fluorescence according to the manufacturer’s guidelines. The tests were performed in duplicate.
# [3] = test system: 6 Hz psychomotor seizure model; design: method as in PMID 32253957; details: mice, cited from earlier work
# [4] = test system: maximal electroshock-induced seizure (MES); design: method as in PMID 23291122, PMID 25226229, PMID 25090118; details: mice, cited from earlier work
# [5] = target: T2, CYP2D6 (Homo sapiens, UniProt P10635); test: Vivid CYP450 screening kit, CYP2D6; format: biochemical; details: 0.015 μg/mL, 20 min incubation, p > 0.05
# T2 construct: purchased Thermo Fisher Scientific
# Protocol: as §1
# [6] = target: batrachotoxin-binding site on voltage-gated sodium channels; design: method as in PMID 25226229, PMID 30594731, PMID 28824309; details: read-out: Affinity towards Batrachotoxin-Binding Site on Sodium Channels IC50 ± SEM; cited from earlier work
# [7] = target: T3, CYP2C19 (Homo sapiens, UniProt P33261); test: Vivid CYP450 screening kit, CYP2C19; format: biochemical; details: 0.015 µg/mL, 20 min incubation, p < 0.05
# T3 construct: purchased Thermo Fisher Scientific
# Protocol: as §1
# [8] = target: T4, CYP3A5 (Homo sapiens, UniProt P20815); test: Vivid CYP450 screening kit, CYP3A5; format: biochemical; details: 0.015 μg/mL, 20 min incubation, p > 0.05
# T4 construct: purchased Thermo Fisher Scientific
# Protocol: as §1
# [9] = target: T5, CYP3A4 (Homo sapiens, UniProt P08684); test: Vivid CYP450 screening kit, CYP3A4; format: biochemical; details: 0.015 μg/mL, 20 min incubation, p > 0.05
# T5 construct: purchased Thermo Fisher Scientific
# Protocol: as §1
# [10] = test system: Albino Swiss mice; test: Biochemical parameters of liver and renal function in serum after chronic administration; format: in vivo; details: 47.6 mg/kg i.p. for 14 days, unpaired t-test p > 0.05
# Protocol: (§2) The experiments were carried out on adult male Albino Swiss mice weighing 20 ± 5 g. […] The mice from the control group (8 mice) received 0.9% NaCl solution i.p. once daily for 14 days.
# (§3) After completion of the experimental procedure (on the 15th day—24h after the last injection), the animals were decapitated. Their livers and kidneys were collected for histopathological examination, while blood was drawn for biochemical and morphological tests and for HPLC-FL determination of TP-315 in serum.
# For the determination of biochemical parameters (ALT, AST, GGT, creatinine, urea), whole blood was collected in clotting activator tubes (Sarstadt, Nümbrecht, Germany). To obtain serum, blood tubes were centrifuged at 4200 RPM for 10 min. Biochemical determinations were performed on an ERBA XL 640 analyzer (ERBA Mannheim, Germany) according to the manufacturer’s standard procedure. Whole blood for the determination of morphological parameters was collected in ethylenediaminetetraacetic acid (EDTA) tubes (Sarstadt, Nümbrecht, Germany). Morphological parameters were determined on the MYTHIC 18 Cormay analyzer (Cormay, Lublin, Poland) according to the manufacturer’s standard procedure.
# [11] = test system: Albino Swiss mice; test: Histopathological examination of kidneys and liver after chronic administration; format: in vivo; details: 47.6 mg/kg i.p. for 14 days, H&E staining, vs control group
# Protocol: as §2, §3
# The kidneys and livers of mice from the control and experimental groups were subjected to histopathological evaluation. The organs were fixed in 10% buffered formalin at pH 7.2 and then fixed with increasing concentrations of alcohol solutions, acetone, and xylene in paraffin blocks using a tissue processor (Leica TP-20, Leica Biosystems, Wetzlar, Germany). 4 μm thick tissue sections cut with a sledge microtome (Leica SR-200, Leica Biosystems, Wetzlar, Germany) were transferred onto slides. The preparations for the histopathological samples were stained with hematoxylin and eosin and evaluated under a light microscope (Nikon Eclipse E-600, […]). Reagents were purchased from Sigma-Aldrich (St. Louis, MO, USA).
# T3 sequence (P33261 whole entry): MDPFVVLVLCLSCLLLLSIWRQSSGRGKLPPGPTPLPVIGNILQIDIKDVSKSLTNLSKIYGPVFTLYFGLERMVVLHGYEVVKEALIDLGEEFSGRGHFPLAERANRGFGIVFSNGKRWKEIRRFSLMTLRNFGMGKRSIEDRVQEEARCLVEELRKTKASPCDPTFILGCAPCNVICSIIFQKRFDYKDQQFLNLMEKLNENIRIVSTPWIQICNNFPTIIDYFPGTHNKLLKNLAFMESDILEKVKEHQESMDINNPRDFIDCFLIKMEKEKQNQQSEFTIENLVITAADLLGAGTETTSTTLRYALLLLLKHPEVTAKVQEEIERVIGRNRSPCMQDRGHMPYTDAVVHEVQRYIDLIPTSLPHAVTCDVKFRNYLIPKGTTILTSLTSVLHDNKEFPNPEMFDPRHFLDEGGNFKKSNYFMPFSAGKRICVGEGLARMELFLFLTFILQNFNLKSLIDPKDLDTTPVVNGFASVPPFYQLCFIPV
# T2 sequence (P10635 whole entry): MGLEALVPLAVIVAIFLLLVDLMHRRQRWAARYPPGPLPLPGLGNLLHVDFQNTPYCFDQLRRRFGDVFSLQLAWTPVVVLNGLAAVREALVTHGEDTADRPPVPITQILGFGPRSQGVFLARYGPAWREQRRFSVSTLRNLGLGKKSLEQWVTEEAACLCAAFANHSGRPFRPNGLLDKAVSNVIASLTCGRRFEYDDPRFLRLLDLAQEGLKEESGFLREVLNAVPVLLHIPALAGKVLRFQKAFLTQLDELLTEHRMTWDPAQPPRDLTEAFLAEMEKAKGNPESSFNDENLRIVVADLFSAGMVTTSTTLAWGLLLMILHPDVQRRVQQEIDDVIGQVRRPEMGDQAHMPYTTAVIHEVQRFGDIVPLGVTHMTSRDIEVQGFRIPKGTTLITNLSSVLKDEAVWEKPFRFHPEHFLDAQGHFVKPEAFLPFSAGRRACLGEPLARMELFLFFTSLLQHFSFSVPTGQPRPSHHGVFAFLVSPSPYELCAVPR
# T4 sequence (P20815 whole entry): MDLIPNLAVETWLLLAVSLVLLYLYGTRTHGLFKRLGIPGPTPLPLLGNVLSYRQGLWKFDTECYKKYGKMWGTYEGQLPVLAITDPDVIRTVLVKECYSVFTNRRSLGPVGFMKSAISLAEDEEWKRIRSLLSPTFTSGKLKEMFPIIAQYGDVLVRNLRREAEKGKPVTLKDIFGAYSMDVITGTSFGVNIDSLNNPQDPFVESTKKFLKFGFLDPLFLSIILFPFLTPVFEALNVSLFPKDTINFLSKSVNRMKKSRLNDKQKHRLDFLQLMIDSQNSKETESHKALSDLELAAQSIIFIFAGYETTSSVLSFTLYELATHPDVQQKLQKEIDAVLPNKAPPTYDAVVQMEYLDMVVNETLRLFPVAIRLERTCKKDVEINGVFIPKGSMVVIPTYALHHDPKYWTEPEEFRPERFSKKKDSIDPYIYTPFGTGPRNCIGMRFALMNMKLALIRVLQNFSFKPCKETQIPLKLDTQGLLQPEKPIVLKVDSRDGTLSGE
# T5 sequence (P08684 whole entry): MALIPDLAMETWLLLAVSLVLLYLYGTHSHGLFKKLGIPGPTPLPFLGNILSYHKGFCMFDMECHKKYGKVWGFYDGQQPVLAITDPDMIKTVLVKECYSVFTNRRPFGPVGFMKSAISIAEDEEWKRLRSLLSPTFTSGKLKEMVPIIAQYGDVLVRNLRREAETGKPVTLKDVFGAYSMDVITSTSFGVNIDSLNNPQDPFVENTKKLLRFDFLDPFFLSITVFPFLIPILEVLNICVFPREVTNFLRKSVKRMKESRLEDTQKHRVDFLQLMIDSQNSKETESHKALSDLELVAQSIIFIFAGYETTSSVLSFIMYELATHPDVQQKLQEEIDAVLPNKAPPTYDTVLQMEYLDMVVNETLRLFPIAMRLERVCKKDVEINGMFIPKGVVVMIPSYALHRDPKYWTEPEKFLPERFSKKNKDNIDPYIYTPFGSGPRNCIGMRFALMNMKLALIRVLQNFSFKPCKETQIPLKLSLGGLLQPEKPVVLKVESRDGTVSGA
structure (smiles),measurement,setting,value
"CCCCCCn1c(-c2cccc(Cl)c2)n[nH]c1=S [TP-315, 5-(3-Chlorophenyl)-4-hexyl-2,4-dihydro-3H-1,2,4-triazole-3-thione]",Neurotoxicity in Chimney or Rotarod (†) Tests in Mice,[1]; pretreatment time 15 min,462.9 ± 20.0
same,Neurotoxicity in Chimney or Rotarod (†) Tests in Mice,[1]; pretreatment time 30 min,462.9 ± 20.0
same,Neurotoxicity in Chimney or Rotarod (†) Tests in Mice,[1]; pretreatment time 60 min,456.9 ± 19.7
same,Neurotoxicity in Chimney or Rotarod (†) Tests in Mice,[1]; pretreatment time 120 min,448.1 ± 21.7
same,Inhibition of CYP2B6 activity compared to the control,[2],did not statistically significantly inhibit
same,Anticonvulsant Activity in 6 Hz Test ED50 ± SEM,[3]; pretreatment time 15 min,61.3 ± 10.1 mg/kg
same,Anticonvulsant Activity in 6 Hz Test ED50 ± SEM,[3]; pretreatment time 30 min,59.7 ± 6.8 mg/kg
same,Anticonvulsant Activity in 6 Hz Test ED50 ± SEM,[3]; pretreatment time 60 min,68.1 ± 11.0 mg/kg
same,Anticonvulsant Activity in 6 Hz Test ED50 ± SEM,[3]; pretreatment time 120 min,136.2 ± 18.3 mg/kg
same,Anticonvulsant Activity in MES Test ED50 ± S.E.,[4]; pretreatment time 15 min,47.6 ± 3.8 mg/kg
same,Anticonvulsant Activity in MES Test ED50 ± S.E.,[4]; pretreatment time 30 min,68.3 ± 10.3 mg/kg
same,Anticonvulsant Activity in MES Test ED50 ± S.E.,[4]; pretreatment time 60 min,98.1 ± 16.4 mg/kg
same,Anticonvulsant Activity in MES Test ED50 ± S.E.,[4]; pretreatment time 120 min,159.7 ± 21.7 mg/kg
same,Inhibition of CYP2D6 activity compared to the control,[5],did not statistically significantly inhibit
same,IC50,[6],6.21 ± 0.8 µM
same,Inhibition of CYP2C19 activity compared to the control,[7],statistically significantly inhibited
same,Inhibition of CYP3A5 activity compared to the control,[8],did not statistically significantly inhibit
same,Inhibition of CYP3A4 activity compared to the control,[9],did not statistically significantly inhibit
same,ALT in serum vs control group,[10],did not differ statistically significant
same,AST in serum vs control group,[10],did not differ statistically significant
same,Creatinine concentration in serum vs control group,[10],not statistically significant
same,GGT in serum vs control group,[10],did not differ statistically significant
same,Urea concentration in serum vs control group,[10],not statistically significant
same,Histopathological examination of kidneys,[11],no differences in the microscopic structure of kidneys
same,Histopathological examination of liver,[11],normal organ without pathological changes
